Source: the supplement of paper PMC10307832

Experiments:
Assay in all cases: relative viability (nuclei count vs DMSO), 5 days (fraction); higher = more cells survive
[1] = compound: C1=CC(=CC=C1NC(=S)NNC2=C(C=C(C=C2[N+](=O)[O-])C(F)(F)F)[N+](=O)[O-])F [Kobe2602] + Nc1ncn([C@H]2C[C@H](O)[C@@H](CO)O2)c(=O)n1 [Decitabine] (partner 2 µM)
In short: (§1)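 Five library-drug doses in √10 steps were combined with a fixed anchor-drug dose, or a single drug was given alone, by pin tool to lung cancer cell lines in 1536-well plates the day after seeding. Nuclei were stained and counted after 5 days. Relative viability is the nuclei count in treated wells over that in vehicle wells, taken as the median of duplicate plates.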

[2] = compound: COc1cc2nccc(Oc3ccc(NC(=O)C4(C(=O)Nc5ccc(F)cc5)CC4)cc3)c2cc1OC [Cabozantinib] + Cc1nc(Nc2ncc(C(=O)Nc3c(C)cccc3Cl)s2)cc(N2CCN(CCO)CC2)n1 [Dasatinib] (partner 0.075 µM)
In short: as §1

[3] = compound: O[C@@H](COc1cccc2ncccc12)CN1CCN([C@@H]2c3ccccc3[C@@H]3[C@H](c4ccccc42)C3(F)F)CC1 [Zosuquidar] + CC(=O)Nc1cccc(-n2c(=O)n(C3CC3)c(=O)c3c(Nc4ccc(I)cc4F)n(C)c(=O)c(C)c32)c1 [Trametinib] (partner 0.02 µM)
In short: as §1

[4] = compound: O[C@@H](COc1cccc2ncccc12)CN1CCN([C@@H]2c3ccccc3[C@@H]3[C@H](c4ccccc42)C3(F)F)CC1 [Zosuquidar] + CC(C)C[C@H](NC(=O)[C@H](Cc1ccccc1)NC(=O)c1cnccn1)B(O)O [Bortezomib] (partner 0.002 µM)
In short: as §1

Cell Line	relative viability ([1]; first compound 0.2 µM)	relative viability ([1]; first compound 0.6325 µM)	relative viability ([1]; first compound 2 µM)	relative viability ([1]; first compound 6.325 µM)	relative viability ([1]; first compound 20 µM)	relative viability ([2]; first compound 0.06325 µM)	relative viability ([2]; first compound 0.6325 µM)	relative viability ([2]; first compound 2 µM)	relative viability ([3]; first compound 0.01 µM)	relative viability ([3]; first compound 0.03162 µM)	relative viability ([3]; first compound 0.1 µM)	relative viability ([3]; first compound 0.3162 µM)	relative viability ([3]; first compound 1 µM)	relative viability ([2]; first compound 0.02 µM)	relative viability ([2]; first compound 0.2 µM)	relative viability ([4]; first compound 0.01 µM)	relative viability ([4]; first compound 0.03162 µM)	relative viability ([4]; first compound 0.1 µM)	relative viability ([4]; first compound 0.3162 µM)	relative viability ([4]; first compound 1 µM)
LK-2	0.379	0.293	0.283	0.313	0.442	0.247	0.341	0.46	0.822	0.794	0.735	0.825	0.89	–	–	–	–	–	–	–
ABC-1	1.11	1.31	1.05	1.18	1.16	0.567	0.55	0.525	–	–	–	–	–	0.515	0.596	0.361	0.328	0.322	0.379	0.269
NCI-H1563	–	–	–	–	–	0.424	0.498	0.452	–	–	–	–	–	0.386	0.43	0.842	0.882	0.807	1.04	0.858
NCI-H522	0.693	0.654	0.649	0.642	0.756	0.898	0.846	1.04	0.81	0.706	0.843	0.723	0.719	0.726	0.93	–	–	–	–	–
NCI-H2170	0.492	0.455	0.481	0.449	0.478	0.57	0.542	0.591	0.85	0.929	0.868	0.952	0.869	0.622	0.373	–	–	–	–	–
SW 900	0.559	0.454	0.411	0.452	0.387	0.373	0.404	0.23	0.666	0.715	–	1.05	0.988	0.541	0.541	–	–	–	–	–
CAL-12T	–	–	–	–	–	0.341	0.327	0.221	0.327	0.449	0.262	0.442	0.32	0.324	0.354	0.974	1.15	–	1.03	0.735
NCI-H1944	0.502	0.452	0.46	0.439	0.48	0.233	0.221	0.216	0.418	0.393	0.389	0.429	0.388	0.183	0.206	–	–	–	–	–
EBC-1	–	–	–	–	–	–	–	–	–	–	–	–	–	–	–	0.649	0.553	0.652	0.591	0.547
NCI-H1395	0.764	0.752	0.712	0.687	0.68	0.473	0.458	0.37	1.05	1.01	–	1.05	1.07	0.363	0.423	–	–	–	–	–
IA-LM	–	–	–	–	–	–	–	–	–	–	–	–	–	–	–	0.925	0.797	0.975	1.03	0.84
NCI-H1793	0.482	0.485	0.656	0.664	0.472	0.519	0.336	0.378	0.423	–	–	0.445	0.434	0.436	0.343	–	–	–	–	–
